We go through three molecules from PMC9229798, “Antioxidant Activity and Cytotoxicity of Aromatic Oligosulfides” (Molecules, 2022).

For assay [1] the following is noted: Fe2+ chelating activity; read-out: FIC, IC50 (EDTA activity); cited from earlier work.
The subject of a further assay is A-549. Put plainly: MTT assay. The assay is classed as cell-based, human. As for the experimental part:
(§1) The antiproliferative activity of aromatic oligosulfides 1–6 was determined against human cell lines, including colon carcinoma HCT-116, breast adenocarcinoma MCF-7, lung adenocarcinoma A-549, colorectal carcinoma SW-480, and non-tumourigenic WI-38, using the MTT assay (Table 4). […] However, some selectivity for cancer cells was evident and the IC50 values for non-tumourigenic cells were slightly higher for compounds 1 and 2.
(§2) Cell survival was determined by the MTT [3-(4,5-[…])-2,5-diphenyl tetrazolium bromide] assay by Niks method with small modifications. HCT-116 (colon carcinoma), MCF-7 (breast adenocarcinoma), A-549 (lung adenocarcinoma) and SW-480 (colorectal carcinoma) human cancer cell lines and WI-38 (cell line composed of fibroblasts) were cultured in DMEM (PanEco, Moscow, Russia) with Glutamin (PanEco, Moscow, Russia) and antibiotics (PanEco, Moscow, Russia) in CO2 (5%) at 37 °C. The compounds were dissolved (20 mM) in DMSO and then added to the cell culture medium at the required concentration with a maximum DMSO content of 0.5 v/v%. At these concentrations, DMSO had no effect on cell viability, as was shown in the control experiments. Cells were cultured in 96-well plates (7000 cells/well) and treated with various concentrations (from […]) of the test compounds as well as doxorubicin at 37 °C for 72 h. Cell viability was determined using the MTT assay, which quantified dehydrogenase activity. Then, the cells were incubated at 37 °C for 50 min with a solution of MTT ([…], 5 mg × mL^−1) (Sigma-Aldrich, St. Louis, MO, USA). The supernatant was discarded, and cells were dissolved in DMSO ([…]). The optical density of the solution was measured at 570 nm with use of a multiwall-plate reader (Anthos Zenyth 2000rt, Biochrom, Cambridge, UK), and the percentage of surviving cells was calculated from the absorbance of untreated cells. Each experiment was repeated at least three times, and each concentration was tested in at least three replicates. Data were presented as a graph of the percentage of surviving cells versus the concentration of the test substances. The meanings of 50% inhibition concentration (IC50) with standard deviation were calculated using GraphPad Prism Version 5.03 for Windows (GraphPad Software, San Diego, CA, USA).

Assay [2] concerns HCT-116. As to the kind of experiment: MTT assay. The class given is cell-based, human. The method, then:
as §1, §2

Another assay relates to MCF-7. Put plainly: MTT assay. The assay is classed as cell-based, human. As for the experimental part: as §1, §2
In the next assay the test system is SW-480. As to the kind of experiment: MTT assay. The assay is classed as cell-based, human. As for the experimental part: as §1, §2
Assay [3] deals with HCT-116. Put plainly: Annexin V/Dead Cell assay. The assay is classed as cell-based, human. The conditions noted are these: HCT-116, 2 × IC50, 24 h. An excerpt: Apoptosis or programmed cell death is an important and active regulatory pathway of cell growth and proliferation. Cells respond to specific induction signals by initiating intracellular processes that result in characteristic physiological changes. Among these are externalization of phosphatidylserine (PS) to the cell surface, cleavage and degradation of specific cellular proteins, compaction and fragmentation of nuclear chromatin, and loss of membrane integrity. Phosphatidylserine (PS) is normally located in the inner part of the cell membrane. In the initial stage of apoptosis, the PS residues which translocated to the extracellular are detected by Annexin V, which is a calcium-dependent phospholipid-binding protein with a high affinity for PS. Annexin V flow cytometric assay was used to evaluate the compounds’ ability to induce apoptosis and influence on cell death. HCT-116 colon carcinoma and A-549 lung adenocarcinoma cells were treated by disulfides 2 and 3.
HCT-116 (colon carcinoma) and A-549 (lung carcinoma) cells (1 × 10^6) were seeded in a six-well plate and were incubated for 24 h. […] After incubation, the cells were harvested by trypsinization, precipitated by centrifugation (3000 rpm), washed with PBS, recentrifuged, and the buffer was removed. DMEM was added to achieve a cell concentration of 400–1000 cells/µL. The Muse Annexin V & Dead Cell Kit reagent (100 µL) was added to the cells and […] for 20 min at room temperature in the dark. The results were recorded on a Muse Cell Analyzer flow cytometer (Merck, Rahway, NJ, USA).

For `O=C([O-])CN(CCN(CC(=O)[O-])CC(=O)O)CC(=O)O.[Na+].[Na+]` [EDTA, reference compound], the IC50 in assay [1] was 380 ± 30 µM.
For the molecule `COc1cccc2c1C(=O)c1c(O)c3c(c(O)c1C2=O)C[C@@](O)(C(=O)CO)C[C@@H]3O[C@H]1C[C@H](N)[C@H](O)[C@H](C)O1` [doxorubicine, doxorubicin, reference compound], the IC50 was 0.24 ± 0.02 µM in the assay with A-549 (Homo sapiens, A549, 72 h); 0.65 ± 0.05 µM with HCT-116 [2] (Homo sapiens, HCT-116, 72 h); 0.28 ± 0.03 µM in the assay on MCF-7 (Homo sapiens, MCF7, 72 h); 0.45 ± 0.06 µM in the assay on SW-480 (Homo sapiens, SW480, 72 h). The total apoptotic cells in the assay on HCT-116 [3] is recorded as 17.9%.
For the molecule `N.N.[Cl][Pt][Cl]` [cisplatin, reference compound], the IC50 with A-549 (72 h) was 20.1 ± 5.6 µM; in the assay with HCT-116 [2] (72 h), 9.1 ± 2.3 µM; in the assay on MCF-7 (72 h), over 30 µM; in the assay on SW-480 (72 h), 17.6 ± 5.4 µM.
